The term IC50 denotes the concentration that gives 50% inhibition. A higher IC50 goes with a need for much substance.

Structures are written as SMILES.

Test [1] deals with human A2b adenosine receptor (Homo sapiens (Human), UniProt P29275). The test can be described thus: A2b radioligand filtration binding assay. As to conditions: membranes from HEK293 cells expressing human A2b receptor. The procedure:
Measurement of A2b Binding Affinity
The reported affinity of the compounds of the invention for the human A2b adenosine receptor was determined experimentally using a radioligand filtration binding assay. This assay measures the amount of binding of a tritiated proprietary A2b receptor antagonist, in the presence and absence of a compound of the invention, to membranes made from HEK293 cells recombinantly expressing the human A2b adenosine receptor (Perkin Elmer, Cat. No. ES-013-C).
148 μL (135 μg/mL) membranes and 2 μL test compounds were transferred to individual wells of a 96-well polypropylene assay plate and incubated for 15 to 30 minutes at room temperature with agitation. Tritiated radioligand was diluted to a concentration of 14 nM in assay buffer (phosphate buffered saline without Magnesium and Calcium, pH 7.4; GE Healthcare Life Sciences, Cat. No. SH30256.01) and then 50 μL of the solution were transferred to each well of the assay plate. To define total and non-specific binding, wells containing 1% DMSO and 20 μM N-ethylcarboxamidoadenosine (Tocris Bioscience, Cat. No. 1691) respectively, were also included. The wells of the assay plate were incubated at room temperature for 60 minutes with agitation, then filtered using a FilterMate Harvester® (Perkin Elmer) or similar equipment through a UniFilter-96® PEI coated plate (Perkin Elmer Cat. No. 6005274 or 6005277). Filtering was achieved by aspirating the contents of the assay plate for 5 seconds, then washing and aspirating the contents three times with ice-cooled wash buffer (assay buffer supplemented with 0.0025% Brij58) and allowing the vacuum manifold to dry the plate for 30 seconds. The filter plate was incubated for at least 1 hour at 55° C. and allowed to dry. The bottom of the filter plate was then sealed with backing tape. 40 μL Ultima Gold™ (Perkin Elmer, Cat. No. 6013329) was added to each well of the filter plate and the top of the plate was sealed with TopSeal-A PLUS® clear plate seal (Perkin Elmer, Cat. No. 6050185). The plates were then incubated for at least 20 minutes, and then the amount of radioactivity remaining in each well was determined using a TopCount® (Perkin Elmer) scintillation counter. After normalization to total and non-specific binding, the percent effect at each compound concentration was calculated. The plot of percent effect versus the log of compound concentration was analyzed electronically using a 4-parameter logistic fit based on the Levenberg-Marquardt algorithm to generate IC50 values.

The target in test [2] is human A2a adenosine receptor (Homo sapiens (Human), UniProt P29274). The test can be described thus: A2a receptor affinity radioligand binding assay ([3H] SCH58261). As to conditions: membranes from HEK293 or CHO cells expressing human A2a receptor. The method, then: The A2a receptor affinity binding assay measured the amount of binding of a tritiated ligand with high affinity for the A2a adenosine receptor to membranes made from HEK293 or CHO cells recombinantly expressing the human A2a adenosine receptor, in the presence of varying concentrations of a compound of the invention.
Measurement of A2a Binding Affinity Using Radioligand Binding
148 μL (5 μg/mL) membranes (Perkin Elmer, Cat. No. RBHA2aM400UA) and 2 μL compounds of the invention to be tested (test compound) were transferred to individual wells of a 96-well polypropylene assay plate and incubated for 15 to 30 minutes at room temperature. [^3H] SCH58261 ((7-(2-phenylethyl)-5-amino-2-(2-furyl)-pyrazolo-[4,3-e]-1,2,4-triazolo[1,5-c]pyrimidine)) was diluted in assay buffer (50 mM Tris pH 7.4, 10 mM MgCl2, 0.005% Tween20) to a concentration of 4 nM and 50 μL transferred to each well of the assay plate. To define total and non-specific binding, wells containing 1% DMSO and 1 μM ZM241385 (Tocris Bioscience, Cat. No. 1036) respectively, were also included. The assay plate was incubated at room temperature for 60 minutes with agitation. Using a FilterMate Harvester® (Perkin Elmer), the contents of the assay plate were filtered through a UniFilter-96® PEI coated plate (Perkin Elmer Cat. No. 6005274 or 6005277). Filtering was achieved by aspirating the contents of the assay plate for 5 seconds, then washing and aspirating the contents three times with ice-cooled wash buffer (50 mM Tris-HCl pH 7.4, 150 mM NaCl) and allowing the vacuum manifold to dry the plate for 30 seconds. The filter plate was incubated for at least 1 hour at 55° C., and allowed to dry. The bottom of the filter plate was sealed with backing tape. 40 μL Ultima Gold™ (Perkin Elmer, Cat. No. 6013329) was added to each well of the filter plate and the top of the plate was sealed with TopSeal-A PLUS® clear plate seal (Perkin Elmer, Cat. No. 6050185). The plate was incubated for at least 20 minutes, and then the amount of radioactivity remaining in each well was determined using a TopCount® (Perkin Elmer) scintillation counter. After normalization to total and non-specific binding, the percent effect at each compound concentration was calculated. The plot of percent effect versus the log of compound concentration was analyzed electronically using a 4-parameter logistic fit based on the Levenberg-Marquardt algorithm to generate IC50 values.

Sequence of human A2b adenosine receptor (P29275 whole entry): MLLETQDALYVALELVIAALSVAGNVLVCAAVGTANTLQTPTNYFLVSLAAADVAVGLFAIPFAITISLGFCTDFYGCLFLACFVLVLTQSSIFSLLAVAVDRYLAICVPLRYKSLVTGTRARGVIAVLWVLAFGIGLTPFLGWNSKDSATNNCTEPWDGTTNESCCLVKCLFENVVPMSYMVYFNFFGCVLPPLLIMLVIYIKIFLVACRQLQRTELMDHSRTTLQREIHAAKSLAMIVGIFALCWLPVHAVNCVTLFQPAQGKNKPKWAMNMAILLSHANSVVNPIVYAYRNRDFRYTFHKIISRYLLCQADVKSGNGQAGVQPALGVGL
Sequence of human A2a adenosine receptor (P29274 whole entry): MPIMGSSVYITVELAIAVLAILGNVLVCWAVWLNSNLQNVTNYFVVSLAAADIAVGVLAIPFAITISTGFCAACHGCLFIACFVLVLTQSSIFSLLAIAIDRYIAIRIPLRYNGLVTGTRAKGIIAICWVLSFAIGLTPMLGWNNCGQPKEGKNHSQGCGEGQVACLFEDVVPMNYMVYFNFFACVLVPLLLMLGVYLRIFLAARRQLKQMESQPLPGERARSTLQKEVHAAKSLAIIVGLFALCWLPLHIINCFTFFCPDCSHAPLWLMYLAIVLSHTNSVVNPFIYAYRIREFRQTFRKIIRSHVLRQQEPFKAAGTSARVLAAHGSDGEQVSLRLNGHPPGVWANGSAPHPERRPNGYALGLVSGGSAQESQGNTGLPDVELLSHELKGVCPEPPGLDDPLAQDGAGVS

Take `COc1cc2nc(N)n3nc([C@@H]4C[C@@H](C)CN(c5cnn(CC(C)(C)O)c5)C4)nc3c2cc1F` (single isomer, unassigned) [Example 92, rac-1-(4-((3R,5R or 3S,5S)-3-(5-amino-9-fluoro-8-methoxy-[1,2,4]triazolo[1,5-c]quinazolin-2-yl)-5-methylpiperidin-1-yl)-1H-pyrazol-1-yl)-2-methylpropan-2-ol]: the figures for the concentration for half-maximal inhibition (IC50) in test [1] and in test [2] were 602 nM and 10.9 nM, respectively.
Consider `COc1cc2nc(N)n3nc([C@@H]4CCCN(c5cnn(CCCC(C)O)c5)C4)nc3c2cc1F` (single isomer, unassigned) [Example 95, (R or S)-5-(4-((R)-3-(5-amino-9-fluoro-8-methoxy-[1,2,4]triazolo[1,5-c]quinazolin-2-yl)piperidin-1-yl)-1H-pyrazol-1-yl)pentan-2-ol], for which the IC50 in test [1] stood at 5040 nM; in test [2], 205 nM.
Take `COc1cc2nc(N)n3nc(C4CCC(C)N(c5cn(C6CCOCC6)nc5C)C4)nc3c2cc1F` (single isomer, unassigned) [Example 46, 9-fluoro-8-methoxy-24(3R,6S or 3S,6R)-6-methyl-1-(3-methyl-1-(tetrahydro-2H-pyran-4-yl)-1H-pyrazol-4-yl)piperidin-3-yl) [1,2,4]triazolo[1,5-c]quinazolin-5-amine]: the IC50 in test [1] is 86.4 nM; in test [2], 0.6 nM.
Taken in the same sequence, the figures for `COc1cc2nc(N)n3nc([C@@H]4CCCN(c5cnn(CCCC(C)=O)c5)C4)nc3c2cc1F` [Example 93, (R)-5-(4-(3-(5-amino-9-fluoro-8-methoxy-[1,2,4]triazolo[1,5-c]quinazolin-2-yl)piperidin-1-yl)-1H-pyrazol-1-yl)pentan-2-one] were 315 nM and 5.8 nM.
In the same order, the values of `C[C@H]1CC[C@@H](c2nc3c4cc(F)c(Cl)cc4nc(N)n3n2)CN1c1cnn(CC(C)(C)O)c1` [Example 110, 1-(4-((2S,5R)-5-(5-amino-8-chloro-9-fluoro-[1,2,4]triazolo[1,5-c]quinazolin-2-yl)-2-methylpiperidin-1-yl)-1H-pyrazol-1-yl)-2-methylpropan-2-ol] are 1.8 nM and 0.2 nM.
Taken in the same sequence, the figures for `COc1cc2nc(N)n3nc([C@@H]4CCCN(c5cn(CC(C)(C)O)nc5C)C4)nc3c2cc1F` [Example 9, (R)-1-(4-(3-(5-amino-9-fluoro-8-methoxy-[1,2,4]triazolo [1,5-c]quinazolin-2-yl)piperidin-1-yl)-3-methyl-1H-pyrazol-1-yl)-2-methylpropan-2-ol] were 136 nM and 0.5 nM.
Take `COc1cc(F)cc2c1nc(N)n1nc([C@@H]3CCCN(c4cnn(CC(C)(C)O)c4)C3)nc21` [Example 28, (R)-1-(4-(3-(5-amino-9-fluoro-7-methoxy-[1,2,4]triazolo [1,5-c]quinazolin-2-yl)piperidin-1-yl)-1H-pyrazol-1-yl)-2-methylpropan-2-ol]: the half-maximal inhibitory concentration (IC50) worked out at 76.3 nM in test [1] and 2.8 nM in test [2].
Taken in the same sequence, the figures for `COc1cc2nc(N)n3nc([C@@H]4CCCN(c5cn(C6CCOCC6)nc5C)C4)nc3c2cc1F` [Example 17, (R)-9-fluoro-8-methoxy-2-(1-(3-methyl-1-(tetrahydro-2H-pyran-4-yl)-1H-pyrazol-4-yl)piperidin-3-yl) [1,2,4]triazolo[1,5-c]quinazolin-5-amine] were 434 nM and 1.7 nM.
In the same order, the values of `COc1cc(F)cc2c1nc(N)n1nc(C3CCC(C)N(c4cnn(C(C)(C)CO)c4)C3)nc21` (single isomer, unassigned) [Example 123, 2-(4-((2S or 2R,5S or 5R)-5-(5-amino-9-fluoro-7-methoxy-[1,2,4]triazolo[1,5-c]quinazolin-2-yl)-2-methylpiperidin-1-yl)-1H-pyrazol-1-yl)-2-methylpropan-1-ol] are 422 nM and 0.3 nM.
On to `COc1cc(F)cc2c1nc(N)n1nc(C3CCC(C)N(c4cnn(C(C)(C)CO)c4)C3)nc21` (single isomer, unassigned) [Example 122, 2-(4-((2R or 2S,5R or 5S)-5-(5-amino-9-fluoro-7-methoxy-[1,2,4]triazolo[1,5-c]quinazolin-2-yl)-2-methylpiperidin-1-yl)-1H-pyrazol-1-yl)-2-methylpropan-1-ol], for which the IC50 was 2060 nM in test [1] and 369 nM in test [2].
Turning to `Cn1cc(N2CCCC(c3nc4c5c(F)c(F)ccc5nc(N)n4n3)C2)cn1` (single isomer, unassigned) [Example 107, (R or S)-9,10-difluoro-2-(1-(1-methyl-1H-pyrazol-4-yl)piperidin-3-yl)-[1,2,4]triazolo[1,5-c]quinazolin-5-amine], the IC50 worked out at 1520 nM in test [1] and 127 nM in test [2].
On to `COc1cc2nc(N)n3nc([C@@H]4CCCN(c5cn(CS(C)(=O)=O)nc5C)C4)nc3c2cc1F` [Example 129, (R)-9-fluoro-8-methoxy-2-(1-(3-methyl-1-((methylsulfonyl)methyl)-1H-pyrazol-4-yl)piperidin-3-yl)-[1,2,4]triazolo[1,5-c]quinazolin-5-amine], for which the IC50 came to 470 nM in test [1] and 4.1 nM in test [2].
On to `COc1cc(F)cc2c1nc(N)n1nc([C@@H]3CCCN(c4cn(C(C)C(C)(C)O)nc4C)C3)nc21` (single isomer, unassigned) [Example 87, (R or S)-3-(4-((R)-3-(5-amino-9-fluoro-7-methoxy-[1,2,4]triazolo[1,5-c]quinazolin-2-yl)piperidin-1-yl)-3-methyl-1H-pyrazol-1-yl)-2-methylbutan-2-ol], for which the IC50 in test [1] amounted to 134 nM; in test [2], 0.4 nM.
In the case of `COc1cc2nc(N)n3nc([C@@H]4CCN(c5cnn(CC6(O)CCC6)c5)C4)nc3c2cc1F` [Example 38, (R)-1((4-(3-(5-amino-9-fluoro-8-methoxy-[1,2,4]triazolo[1,5-c]quinazolin-2-yl)prrolidin-l-yl)-1H-pyrazol-1-yl)methyl)cyclobutan-1-ol], the IC50 was found to be 182 nM in test [1] and 16.9 nM in test [2].
In the same order, the values of `COc1cc2nc(N)n3nc(C4CCC(C)N(c5cnn(C6CCCC6O)c5)C4)nc3c2cc1F` (single isomer, unassigned) [Example 88, (1R or 1S,2R or 2S)-2-(4-((2S,5R or 2R,5S)-5-(5-amino-9-fluoro-8-methoxy-[1,2,4]triazolo[1,5-c]quinazolin-2-yl)-2-methylpiperidin-1-yl)-1H-pyrazol-1-yl)cyclopentan-1-ol] are 1.8 nM and 0.1 nM.
Taken in the same sequence, the figures for `COc1cc2nc(N)n3nc([C@@H]4CCCN(c5cnn(C(C)(C)C)c5)C4)nc3c2cc1F` [Example 3, (R)-2-(1-(1-(tert-butyl)-1H-pyrazol-4-yl)piperidin-3-yl)-9-fluoro-8-methoxy-[1,2,4]triazolo[1,5-c]quinazolin-5-amine] were 180 nM and 1.5 nM.
